Where two headings read alike, the source gives them in different places.
What was measured:
[1] = test system: SD rats; experiment: Anesthetic effect (minimum effective anesthetic dose, LORR) after single tail vein injection in rats; type: in vivo
Experimental: The dose at which the LORR first occur was determined as the minimum effective anesthetic dose. The minimum effective anesthetic dose is further classified as: A≤5 mg/kg; 5 mg/kg<B≤10 mg/kg; 10 mg/kg<C≤20 mg/kg; D>20 mg/kg in this invention.
The Up and down method was used to determine the ED50 of the compound causing the LORR. […] After observing five consecutive consistent directional changes in LORR occurrence and recovery, the ED50 was calculated using the Dixon-Mood formula. After determining the ED50, the onset time, duration of anesthesia, and emergence time of anesthesia were determined at an injection dose of 2ED50.
In the above experiments, in addition to recording the dose at which the LORR occurred, the onset time and emergence time of anesthesia, the duration of the LORR, and the duration of sedative effects could also be recorded. Meanwhile, circulatory effects experiments can be added to observe the effects of the compound on circulation and respiration in rats.

[2] = Solubility determination of salt forms of the compounds (10 mg, ultrapure water added incrementally); type: physicochemical; conditions: 10 mg of the salt form, 25° C.±2° C., class = water volume used
Experimental: A weighed amount of 10 mg of the compound's salt form was placed in a vessel at 25° C.±2° C. Ultrapure water was added incrementally. The mixture was vigorously shaken for 30 seconds every 5 minutes and observed for 30 minutes. When no undissolved particles or droplets remained in the test system, the water solubility of the salt form was recorded according to the following criteria: • A: Water volume used is less than 0.1 mL; • B: Water volume used is greater than or equal to 0.1 mL and less than 1.0 mL; • C: Water volume used is greater than or equal to 1.0 mL and less than 5.0 mL.

[3] = test system: SD rats; conditions: tail vein, ratio of minimum lethal dose to minimum effective anesthetic dose
Experimental: SD rats were used, with a single intravenous injection via the tail vein (administration rate of 0.02 ml/s and administration volume of 0.5-1.0 ml per 100 g body weight) in the experiment. The initial dose of the test compound started at 4ED50, and the actual administration dose was calculated based on the body weight measured before the test for each animal. The increase or decrease in subsequent doses was determined based on the results of the experimental animals (whether death occurred). The dose at which death first occurred was determined as the minimum lethal dose. […] The approximate therapeutic index is further classified as: A when the index is ≥5; B when the index is <5 but ≥3; and C when the index is <3.

[4] = well-known to those skilled in the art; cited from earlier work
[5] = type: physicochemical
Experimental: Compound A6S (1 eq) was dissolved in Et2O (2 mL) at room temperature, and the corresponding acid (2 eq) was dissolved in Et2O (NO.1-NO.4) or MeOH (NO.5-NO.10). The above acid solution was slowly added to the reaction system containing Compound A6S using a syringe. NO.1-NO.3 was mixed and stirred at room temperature for 1 hour, and NO.5-NO.10 was mixed and stirred at room temperature for 16 hours. The mixture was filtered under suction to get the solid, then the solid was washed with Et2O, and dried to obtain the corresponding salt form of Compound A6S. Then, the solubility of each salt form was tested in ultrapure water.

[6] = intravenous injection; compared to propofol; cited from earlier work
[7] = vehicle DMSO: A3 31.8%, A14 66.7%, A17 79.2%, A21S 66.7%, A23 60%, A24 82.8%
[8] = vehicle DMSO: A3 31.8%, A14 66.7%, A17 79.2%, A21S 66.7%, A23 60%, A24 82.8%, A25S 70%
[9] = vehicle Pure water, sulfate salts

SMILES | Minimal effective anesthetic dose [1, 8] | Solubility [2] | Minimal effective anesthetic dose [1, 9] | Onset time [1, 9] [min] | Righting Reflex Duration [1, 9] [min] | Sedation Duration [1, 9] [min] | other results
COC(=O)C(C1CC1)N1CCN(c2cc(C(C)C)c(O)c([C@H](C)C3CC3)c2)CC1 (stereo partly shown) [Compound A24] | B (5 mg/kg<B≤10 mg/kg) | C (C: Water volume used is greater than or equal to 1.0 mL and less than 5.0 mL) |  |  |  |  | Onset time [1, 7]: 0.17 to 0.18 min; Righting Reflex Duration [1, 7]: 5.53 to 9.67 min; Sedation Duration [1, 7]: 19.33 to 38.80 min
CC[C@@H](C(=O)OC)N1CCN(c2cc(C(C)C)c(O)c([C@H](C)C3CC3)c2)CC1 [Compound A22S] |  | A (A: Water volume used is less than 0.1 mL) |  |  |  |  | 
CC(C)c1cc(N2CCN([C@@H](C)C(=O)OC(C)(C)C)CC2)cc([C@H](C)C2CC2)c1O [Compound A19S] |  |  | B (5 mg/kg<B≤10 mg/kg) | 0.70 to 0.98 | 2.21 to 5.57 | 14.55 to 21.30 | 
COC(=O)[C@@H](C)N1CCN(c2cc(C(C)C)c(O)c([C@H](C)C3CC3)c2)CC1 [Compound A6R] |  |  | A (A≤5 mg/kg) | 0.15 to 0.70 | 1.72 to 3.82 | 7.02 to 14.77 | 
COC(=O)[C@H](C)[N+]1(C)CCN(c2cc(C(C)C)c(O)c([C@H](C)C3CC3)c2)CC1 [Compound A25S] | D (D>20 mg/kg) |  |  |  |  |  | 
COC(=O)[C@H](C)N1CCN(c2cc(C(C)C)c(O)c(C(C)C)c2)CC1 [Compound A20S] |  |  | B (5 mg/kg<B≤10 mg/kg) | 0.18 to 0.43 | 2.18 to 7.48 | 15.75 to 23.72 | 
COC(=O)CN1CCN(c2cc(C(C)C)c(O)c([C@H](C)C3CC3)c2)CC12CC2 [Compound A11] |  |  | C (10 mg/kg<C≤20 mg/kg) | 0.12 to 0.27 | 0.68 to 3.12 | 12.05 to 14.53 | 
CC(C)c1cccc(C(C)C)c1O [Propofol, reference compound] |  |  |  |  |  |  | Approximate therapeutic index ([3]; vehicle Lipid emulsion): B (B when the index is <5 but ≥3); water solubility [4]: insoluble in water
CC(C)c1cc(N2CCN(CCO)CC2)cc([C@H](C)C2CC2)c1O [Compound A7] |  | B (B: Water volume used is greater than or equal to 0.1 mL and less than 1.0 mL) |  |  |  |  | 
COC(=O)C(C(C)C)N1CCN(c2cc(C(C)C)c(O)c([C@H](C)C3CC3)c2)CC1 (stereo partly shown) [Compound A23] | B (5 mg/kg<B≤10 mg/kg) | C (C: Water volume used is greater than or equal to 1.0 mL and less than 5.0 mL) |  |  |  |  | Onset time [1, 7]: 0.20 to 0.22 min; Righting Reflex Duration [1, 7]: 4.93 to 15.08 min; Sedation Duration [1, 7]: 30.48 to 39.13 min
CC(C)c1cccc([C@H](C)C2CC2)c1O [ciprofol] |  |  |  |  |  |  | water solubility [4]: insoluble in water
CC(C)c1cc(N2CCN(CC(=O)OC3COC3)CC2)cc([C@H](C)C2CC2)c1O [Compound A8] |  | B (B: Water volume used is greater than or equal to 0.1 mL and less than 1.0 mL) |  |  |  |  | 
CC(C)c1cc(N2CCN([C@@H](C)C(=O)OC(C)(C)C)CC2)cc(C(C)C)c1O [Compound A21S] | B (5 mg/kg<B≤10 mg/kg) |  |  |  |  |  | Onset time [1, 7]: 0.25 to 0.42 min; Righting Reflex Duration [1, 7]: 12.02 to 22.80 min; Sedation Duration [1, 7]: 28.72 to 56.33 min
COC(=O)CC(=O)N1CCN(c2cc(C(C)C)c(O)c([C@H](C)C3CC3)c2)CC1 [Compound A3] | C (10 mg/kg<C≤20 mg/kg) | C (C: Water volume used is greater than or equal to 1.0 mL and less than 5.0 mL) |  |  |  |  | Approximate therapeutic index ([3]; vehicle DMSO: A3 31.8%, A17 79.2%): B (B when the index is <5 but ≥3); Onset time [1, 7]: 0.37 to 0.52 min; Righting Reflex Duration [1, 7]: 1.02 to 2.08 min; Sedation Duration [1, 7]: 6.65 to 8.50 min
CC(C)c1cc(N2CCN(CC(=O)OC(C)(C)C)CC2)cc([C@H](C)C2CC2)c1O [Compound A13] |  | A (A: Water volume used is less than 0.1 mL) |  |  |  |  | 
CC(C)c1cc(N2CCN(CC(=O)O)CC2)cc([C@H](C)C2CC2)c1O [Compound A15] |  | A (A: Water volume used is less than 0.1 mL) | D (D>20 mg/kg) |  |  |  | 
CCOC(=O)C(C1CC1)N1CCN(c2cc(C(C)C)c(O)c([C@H](C)C3CC3)c2)CC1 (stereo partly shown) [Compound A26] |  | A (A: Water volume used is less than 0.1 mL) | A (A≤5 mg/kg) | 0.42 to 0.43 | 7.03 to 10.48 | 14.75 to 21.28 | 
CC(C)c1cc(N2CCN(CC(=O)OC(C)(C)C)CC2)cc([C@H](C)C2CC2)c1OCC(=O)OC(C)(C)C [Compound A14] | C (10 mg/kg<C≤20 mg/kg) |  |  |  |  |  | Onset time [1, 7]: 0.18 to 1.63 min; Righting Reflex Duration [1, 7]: 1.95 to 11.67 min; Sedation Duration [1, 7]: 19.40-28.45- min
CC(C)c1cc(N2CCN(CC(=O)OC(C)(C)C)CC2)cc(C(C)C)c1O [Compound A17] | A (A≤5 mg/kg) |  |  |  |  |  | Onset time [1, 7]: 0.15 to 0.63 min; Righting Reflex Duration [1, 7]: 3.67 to 9.38 min; Sedation Duration [1, 7]: 24.42 to 35.32 min
COC(=O)CN1CC2CCC(C1)N2c1cc(C(C)C)c(O)c([C@H](C)C2CC2)c1 [Compound A12] |  | A (A: Water volume used is less than 0.1 mL) | C (10 mg/kg<C≤20 mg/kg) | 0.50 to 0.77 | 1.22 to 7.40 | 9.90 to 34.25 | Approximate therapeutic index ([3]; vehicle Pure water): A (A when the index is ≥5)
COC(=O)[C@H](C)N1CCN(c2cc(C(C)C)c(O)c([C@H](C)C3CC3)c2)CC1 [Compound A6S] |  |  | B (5 mg/kg<B≤10 mg/kg) | 0.47 to 0.73 | 1.08 to 5.67 | 7.93 to 15.12 | Salt formation (Yes/No) ([5]; A6S with Benzenesulfonic acid (NO.6)): Yes; Salt formation (Yes/No) ([5]; A6S with Hydrochloric acid (NO.1)): Yes; Salt formation (Yes/No) ([5]; A6S with Maleic acid (NO.8)): Yes; Salt formation (Yes/No) ([5]; A6S with Methanesulfonic acid (NO.3)): Yes; Salt formation (Yes/No) ([5]; A6S with Oxalic acid dihydrate (NO.7)): Yes; Salt formation (Yes/No) ([5]; A6S with Phosphoric acid (NO.4)): Yes; Salt formation (Yes/No) ([5]; A6S with Sulfuric acid (NO.2)): Yes; Salt formation (Yes/No) ([5]; A6S with p-Toluenesulfonic acid hydrate (NO.5)): Yes
CC(C)c1cccc(C(C)C)c1OCOP(=O)(O)O [fospropofol disodium, Fospropofol disodium] |  |  |  |  |  |  | Onset time [6]: up to 2.9 minutes
CC(C)c1cc(N2CCN(CC(=O)OC(C)(C)C)C3(CC3)C2)cc([C@H](C)C2CC2)c1O [Compound A18] |  |  | B (5 mg/kg<B≤10 mg/kg) | 0.23 to 0.98 | 3.02 to 19.25 | 16.47 to 35.57 | 

Reference: patent US20260137676A1 (priority 2022, published 2026)
